Measured values reported in patent publication US8772504B2, “Substituted benzoxazole, benzimidazole, oxazolopyridine and imidazopyridine derivatives as gamma secretase modulators” (Janssen Pharmaceuticals, Inc., priority 2009, dated 2014).

Key:
Format in all cases: cell-based
Aβ42 [1] = assay: Screening for γ-secretase-modulating activity, Method 2: Aβ42 Alphalisa on SKNBE2 cell supernatant; settings: Method 2, Table 3c, SKNBE2 cells carrying APP 695 wild type, overnight incubation
Summary of the method: (§1)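 SKNBE2 cells expressing wild-type APP695, plated at 10^4 cells/well with compound at several concentrations and incubated overnight at 37° C. Aβ42 (C-terminal capture, N-terminal biotinylated detection) and Aβtotal (N-terminal/4G8 pair) measured in supernatant by AlphaLISA. IC50 from 4-parameter fit of percent of compound-free control.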

Aβtotal [2] = assay: Screening for γ-secretase-modulating activity, Method 1: Aβtotal sandwich ELISA on SKNBE2 cell media; settings: Table 3b, SKNBE2 cells carrying APP 695 wild type, non-linear regression of % of control, averaged IC50 values
Summary of the method: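 SKNBE2 cells expressing wild-type APP 695 were treated with compound for 18 hours. Aβtotal in the medium was measured by sandwich ELISA (6E10 capture, biotinylated 4G8 detection, fluorogenic peroxidase read-out). IC50 came from a 4-parameter fit of % inhibition with top/bottom fixed at 100/0 and Hill slope 1, or as averaged IC50 from % of untreated control.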

Aβ42 [3] = assay: Screening for γ-secretase-modulating activity, Method 1: Aβ42 sandwich ELISA on SKNBE2 cell media; settings: Table 3b, SKNBE2 cells carrying APP 695 wild type, non-linear regression of % of control, averaged IC50 values
Summary of the method: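 SKNBE2 cells expressing wild-type APP695 were treated with compound for 18 h in Ultraculture/1% glutamine. Secreted Aβ42 was quantified by sandwich ELISA (C-terminal capture, biotinylated 3D6, TMB, 450 nm), with WST-1 used as a toxicity check. IC50 was derived from 4-parameter fits of % inhibition or % of untreated control.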

Aβtotal [4] = assay: Screening for γ-secretase-modulating activity, Method 2: Aβtotal Alphalisa on SKNBE2 cell supernatant; settings: Method 2, Table 3c, SKNBE2 cells carrying APP 695 wild type, overnight incubation
Summary of the method: as §1

SMILES: COc1nc(Nc2nc(C)cc3c2nc(-c2ccc(F)cc2)n3C)ccc1-n1cnc(C)c1 [Compound 150]
- IC50 (Aβ42 [1]): 145 nM
- IC50 (Aβtotal [2]): 6920 nM
- IC50 (Aβ42 [3]): 437 nM
- IC50 (Aβtotal [4]): 4900 nM

SMILES: COc1nc(Nc2cc(F)cc3c2nc(-c2ccccc2Cl)n3C)ccc1-n1cnc(C)c1 [Compound 151]
- IC50 (Aβ42 [1]): 11 nM
- IC50 (Aβtotal [2]): > 3000 nM
- IC50 (Aβ42 [3]): 5 nM
- IC50 (Aβtotal [4]): 4900 nM

SMILES: COc1cccc(-c2nc3c(Nc4ccc(-n5cnc(C)n5)c(OC)c4)nc(C)cc3n2C)c1 [Compound 163]
- IC50 (Aβ42 [1]): 29 nM
- IC50 (Aβtotal [2]): > 3000 nM
- IC50 (Aβ42 [3]): 48 nM
- IC50 (Aβtotal [4]): 4270 nM

SMILES: COCCCc1cc(Nc2ccc(-n3cnc(C)n3)c(OC)c2)c2nc(-c3ccc(F)cc3)n(C)c2n1 [Compound 208]
- IC50 (Aβ42 [1]; Homo sapiens): 91 nM
- IC50 (Aβtotal [2]; Homo sapiens): > 3000 nM
- IC50 (Aβ42 [3]; Homo sapiens): 35 nM
- IC50 (Aβtotal [4]; Homo sapiens): > 10000 nM
